This note sets out measurements from BindingDB's records for doi:10.1021/acsmedchemlett.6b00363 (Philipps University Marburg, 2017).

The Kd is the equilibrium constant for the complex coming apart. A higher Kd goes with lower affinity.

The structures appear in SMILES notation.

In experiment [1] the target is Beta-1 adrenergic receptor (Homo sapiens, UniProt P08588). The experiment can be described thus: Displacement of [3H](-)CGP12177 from human beta1-AR expressed in CHOK1 cells after 2 hrs by TopCount microscintillation counting method. A general note: Loss of bound radioactivity is the signal in a displacement assay; it reports binding, not function.
Chain of Beta-1 adrenergic receptor (P08588 whole entry): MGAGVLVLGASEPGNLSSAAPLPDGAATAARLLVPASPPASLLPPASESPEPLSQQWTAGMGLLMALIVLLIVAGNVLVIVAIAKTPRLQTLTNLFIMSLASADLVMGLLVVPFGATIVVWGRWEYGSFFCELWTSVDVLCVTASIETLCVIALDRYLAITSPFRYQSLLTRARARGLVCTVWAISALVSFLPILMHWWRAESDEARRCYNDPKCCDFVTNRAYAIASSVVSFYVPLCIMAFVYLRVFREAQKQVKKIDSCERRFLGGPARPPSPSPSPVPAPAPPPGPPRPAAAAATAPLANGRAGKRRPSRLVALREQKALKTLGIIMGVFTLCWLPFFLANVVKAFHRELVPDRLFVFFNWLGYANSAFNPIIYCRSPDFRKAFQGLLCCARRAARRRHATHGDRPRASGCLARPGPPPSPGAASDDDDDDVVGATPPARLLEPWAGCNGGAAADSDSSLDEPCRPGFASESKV
The target in experiment [2] is Beta-2 adrenergic receptor (Homo sapiens, UniProt P07550). The experiment can be described thus: Displacement of [3H](-)CGP12177 from human beta2-AR expressed in CHOK1 cells after 2 hrs by TopCount microscintillation counting method.
Chain of Beta-2 adrenergic receptor (P07550 whole entry): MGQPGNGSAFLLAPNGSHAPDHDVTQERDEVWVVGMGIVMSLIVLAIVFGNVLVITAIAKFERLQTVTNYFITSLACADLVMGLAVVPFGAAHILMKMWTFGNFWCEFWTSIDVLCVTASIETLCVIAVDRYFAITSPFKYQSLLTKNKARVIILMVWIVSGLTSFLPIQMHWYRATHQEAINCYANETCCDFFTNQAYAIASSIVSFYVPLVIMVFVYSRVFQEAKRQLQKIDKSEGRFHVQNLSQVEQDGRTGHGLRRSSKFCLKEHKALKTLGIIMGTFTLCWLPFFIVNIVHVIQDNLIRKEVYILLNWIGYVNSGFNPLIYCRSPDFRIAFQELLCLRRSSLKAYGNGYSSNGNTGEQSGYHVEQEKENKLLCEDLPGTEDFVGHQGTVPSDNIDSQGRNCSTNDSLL

Turning to `Cc1cc(O)c(CN(C)C)c2c1C(=O)/C(=C/c1ccccc1)O2`, the Kd is 46.8 µM in experiment [1] and 25.1 µM in experiment [2]. For the molecule `CN(C)CCOc1ccc2ccccc2c1C=O`, in experiment [1], the Kd came out at 97.7 µM. In experiment [1], `C[n+]1c(/C=C/Nc2ccccc2)sc2ccccc21` registered a Kd of 257 µM. In the case of `Cc1cc(O)c(CN2CCCC2)c2c1C(=O)/C(=C/c1cc3ccccc3o1)O2`, the Kd in experiment [1] amounted to 38 µM; in experiment [2], 14.5 µM. The molecule `CCCCN(C)Cc1c(O)cc(C)c2c1O/C(=C\c1cc3cc(Br)ccc3o1)C2=O` showed a Kd in experiment [2] of 17.8 µM.
